The series can be described thus: Stability of folic acid in 0.1 M NaOH (HPLC). It counts as physicochemical. Conditions: 25 °C, protected from light, 144 hours (6 days).

`Nc1nc2ncc(CNc3ccc(C(=O)N[C@@H](CCC(=O)O)C(=O)O)cc3)nc2c(=O)[nH]1` [folic acid, pteroyl-L-glutamic acid]: the “decomposition of folic acid” value was “did not undergo to decomposition”.

(Values after patent EP3940071A1, “5-METHYLFOLATE PRODUCING MICROORGANISM” (Chifeng Pharmaceutical Co., Ltd, priority 2020, dated 2022).)
